The source of these data is US20200289523A1, “FIXED DOSED PHARMACEUTICAL COMPOSITION COMPRISING AMIODIPINE, CANDESARTAN CILEXETIL AND HYDROCHLOROTHIAZIDE FOR THE TREATMENT OF HYPERTENSION” (MIDAS PHARMA GMBH, priority 2016, published 2020).

The nature of data set [1]: Solubility in various standard dissolution media (FIG. 1). The format is physicochemical. The following applies: at low pH-values.
The nature of data set [2]: In-vitro dissolution of tablets (Ph. Eur. 2.9.3/USP <711>). In kind it is physicochemical. The following applies: on changes of the composition of the formulation. How it is done: The in-vitro dissolution of tablets was analyzed according to Ph.

For the compound `CCOc1nc2cccc(C(=O)OC(C)OC(=O)OC3CCCCC3)c2n1Cc1ccc(-c2ccccc2-c2nnn[nH]2)cc1` (centres unmarked) [Candesartan cilexetil], in data set [1], the solubility result is “barely soluble”. For the compound `NS(=O)(=O)c1cc2c(cc1Cl)NCNS2(=O)=O` [Hydrochlorothiazide, 6-chloro-1,1-dioxo-3,4-dihydro-2H-1,2,4-benzothiadiazine-7-sulfonamide], in data set [2], the “dissolution profile of Hydrochlorothiazide” value is given as “not influenced by changes of the composition”.
